The results in this text go back to PMC10343472, “Cyclopentenylcytosine (CPE-C): In Vitro and In Vivo Evaluation as an Antiviral against Adenoviral Ocular Infections” (Molecules, 2023).

Assay [1] has as its system HAdV19/64. Kind of assay: plaque reduction assay in A549 cells, HAdV19/64. The following applies: Human adenovirus sp. The assay is classed as cell-based. The procedure:
(§1) The in vitro antiviral testing was done using a standard plaque reduction assay with A549 human lung carcinoma cells as previously described. The EC50s were determined using a Fitted Line Plot Regression analysis with Minitab Version 21 software. The EC50 is the effective concentration that inhibits plaque formation by 50%. The HAdV types tested represent the most common adenovirus serotypes that cause ocular infections (HAdV8, HAdV19/64, HAdV37 (EKC); HAdV3, HAdV4, HAdV7a (follicular conjunctivitis)) and serotypes that cause conjunctivitis and can replicate in the rabbit ocular model (HAdV1, HAdV2, HAdV5).
(§2) For the in vitro antiviral testing, clinical adenovirus isolates of types HAdV1, HAdV2, HAdV3, HAdV4, HAdV5, HAdV7a, HAdV8, and HAdV19/64 were anonymously collected from patients presenting with typical adenoviral conjunctivitis at the Charles T. Campbell Ophthalmic Microbiology Laboratory at the UPMC Eye Center, University of Pittsburgh, Pittsburgh, PA, USA. The isolates were retrieved from a frozen −80 °C retrospective clinical collection that was de-identified and stored for diagnostic test validations. The types of isolates were determined using serum neutralization. Recently, HAdV19 has been reclassified as HAdV64 [41]; however, for the purpose of this study, it was designated as HAdV19/64. No clinical isolates of HAdV37 were identified, therefore the ATCC (American Type Culture Collection, Manassas, VA, USA) reference strain of HAdV37 was used. The clinical isolates along with the ATCC HAdV37 reference strain were grown in A549 cell (CCL-185, ATCC) monolayers and stocks were prepared, aliquoted, and frozen at –80 °C. The titers of the stock viruses were determined as described in Section 4.7. The same clinical isolate of HAdV5 used for the in vitro antiviral testing was also used for the in vivo antiviral evaluation in the Ad5/NZW rabbit ocular replication model.
(§3) A549 human lung carcinoma cells were grown and maintained in Eagle’s MEM supplemented with 10% fetal bovine serum (Sigma Cell Culture Reagents, St. Louis, MO, USA). The A549 cell line was used to prepare the adenovirus stocks and for the determination of viral titers in the Ad5/NZW rabbit ocular replication model and in the in vitro plaque reduction assays.
(§4) Plaque reduction assays were performed 2–4 times using 24-well multiplates containing A549 monolayers. One plate per virus isolate per drug was used. The 24-well multiplates were inoculated with approximately 100 plaque-forming units (PFU) of HAdV per well. After a three-hour adsorption period, the inocula were removed from all wells. […] The plates were dried, and the number of plaques per well was counted using a dissecting microscope. […] The mean and standard deviation EC50 concentrations of 2–4 trials were then determined for each HAdV isolate. […]
(In general: In a plaque reduction assay, fewer plaques than in the control indicate reduced infectivity or spread.)

Assay [2] relates to HAdV1. Kind of assay: plaque reduction assay in A549 cells, HAdV1. The format is cell-based. As to conditions: Human adenovirus sp. How it is done: as §1, §2, §3, §4
In assay [3] the test system is nine adenovirus types that commonly infect the eye. As to the kind of experiment: plaque reduction assay, whole panel of ocular HAdV types. The following applies: for range of mean EC50 concentrations across the HAdV serotypes tested: highest vs lowest mean EC50; for EC50: unidentified adenovirus. The format is cell-based, Human adenovirus. How it is done:
as §1, §2, §3
(§5) Plaque reduction assays were performed 2–4 times using 24-well multiplates containing A549 monolayers. One plate per virus isolate per drug was used. The 24-well multiplates were inoculated with approximately 100 plaque-forming units (PFU) of HAdV per well. After a three-hour adsorption period, the inocula were removed from all wells. One ml of overlay media with 0.5% methylcellulose containing 100, 10, 1.0, 0.1, 0.01, or 0.001 μg/mL of CPE-C or cidofovir was added to 3 wells each. To the remaining 6 wells, 1 mL of overlay media with 0.5% methylcellulose and without CPE-C or cidofovir was added. The plates were incubated at 37 °C in 5% CO2 until plaque formation was visible. At that time, the cells were fixed and stained with 0.5% gentian violet containing formalin. The plates were dried, and the number of plaques per well was counted using a dissecting microscope. The CPE-C and cidofovir EC50 concentrations (concentrations that inhibits plaque formation by 50%) for each virus isolate were determined using a Fitted Line Plot Regression analysis (Minitab Version 21, State College, PA) of the average number of plaques versus drug concentration. The mean and standard deviation EC50 concentrations of 2–4 trials were then determined for each HAdV isolate. The EC50 concentrations in μg/mL were then converted to μM using the GraphPad online Molarity Calculator (https://www.graphpad.com/quickcalcs/Molarityform.cfm (accessed on 12 June 2023)).

For assay [4], the system named is HAdV3. As to the kind of experiment: plaque reduction assay in A549 cells, HAdV3. The format is cell-based. As to conditions: Human adenovirus sp. The procedure: as §1, §2, §3, §4
In assay [5] the test system is HAdV8. Kind of assay: plaque reduction assay in A549 cells, HAdV8. The following applies: Human adenovirus sp. The format is cell-based. How it is done: as §1, §2, §3, §4
For assay [6], the system named is HAdV37. As to the kind of experiment: plaque reduction assay in A549 cells, HAdV37. The format is cell-based. The following applies: Human adenovirus sp. How it is done: as §1, §2, §3, §4
Assay [7] relates to HAdV5. As to the kind of experiment: plaque reduction assay in A549 cells, HAdV5. The following applies: Human adenovirus sp. The assay is classed as cell-based. The procedure: as §1, §2, §3, §4
For assay [8], the system named is HAdV4. Kind of assay: plaque reduction assay in A549 cells, HAdV4. The format is cell-based. The following applies: Human adenovirus sp. How it is done: as §1, §2, §3, §4
The subject of assay [9] is HAdV7a. Kind of assay: plaque reduction assay in A549 cells, HAdV7a. The assay is classed as cell-based, Human adenovirus. How it is done:
as §1, §2, §3
as §5, with “The CPE-C and cidofovir EC50 concentrations (concentrations that inhibits plaque formation by 50%) for each virus isolate were determined using a Fitted Line Plot Regression analysis (Minitab Version 21, State College, PA) of the average number of plaques versus drug concentration.” left out, “The EC50 concentrations in μg/mL were then converted to μM using the GraphPad online Molarity Calculator (https://www.graphpad.com/quickcalcs/Molarityform.cfm (accessed on 12 June 2023)).” left out

In assay [10] the test system is HAdV2. As to the kind of experiment: plaque reduction assay in A549 cells, HAdV2. The assay is classed as cell-based. The following applies: Human adenovirus sp. How it is done: as §1, §2, §3, §4
Setting [11] is: A549, HAdV19/64, converted from μg/mL.
Where [12] appears, read: HAdV19/64 clinical isolate, A549 cells, mean ± SD of 2–4 trials.
[13] abbreviates: A549, HAdV1, converted from μg/mL.
[14] abbreviates: HAdV1 clinical isolate, A549 cells, mean ± SD of 2–4 trials.
The mark [15] stands for this setting: A549, HAdV3, converted from μg/mL.
[16] abbreviates: HAdV3 clinical isolate, A549 cells, mean ± SD of 2–4 trials.
[17] abbreviates: A549, HAdV8, converted from μg/mL.
Where [18] appears, read: HAdV8 clinical isolate, A549 cells, mean ± SD of 2–4 trials.
Where [19] appears, read: A549, HAdV37, converted from μg/mL.
Setting [20] is: HAdV37 ATCC reference strain, A549 cells, mean ± SD of 2–4 trials.
Setting [21] is: A549, HAdV5, converted from μg/mL.
[22] abbreviates: HAdV5 clinical isolate, A549 cells, mean ± SD of 2–4 trials.
Setting [23] is: A549, HAdV4, converted from μg/mL.
[24] abbreviates: HAdV4 clinical isolate, A549 cells, mean ± SD of 2–4 trials.
The mark [25] stands for this setting: Human adenovirus sp., A549, HAdV7a clinical isolate, A549 cells, mean ± SD of 2–4 trials.
The mark [26] stands for this setting: Human adenovirus sp., A549, HAdV7a, converted from μg/mL.
Setting [27] is: A549, HAdV2, converted from μg/mL.
The mark [28] stands for this setting: HAdV2 clinical isolate, A549 cells, mean ± SD of 2–4 trials.

Read-outs that look alike come from different tables or passages of the source.

With `Nc1ccn([C@@H]2C=C(CO)[C@@H](O)[C@H]2O)c(=O)n1` [CPE-C, Cyclopentenylcytosine], the EC50 in assay [1] (setting [11]) was 0.196 ± 0.118 µM; in [1] (setting [12]), 0.047 ± 0.028 µg/mL; in assay [2] (setting [13]), 0.214 ± 0.027 µM; in [2] (setting [14]), 0.051 ± 0.007 µg/mL; in [3] (read-out: EC50 concentrations across the panel of HAdV types, panel of HAdV types that commonly infect the eye), under 250 nM; in assay [3] (read-out: EC50s across the panel of HAdV types, nine adenovirus types that commonly infect the eye), 0.03 to 0.059 µg/mL. The EC50 in [4] (setting [15]) is 0.165 ± 0.016 µM; in assay [4] (setting [16]) it was 0.04 ± 0.004 µg/mL; in [5] (setting [17]), 246 ± 76 nM; in assay [5] (setting [18]) it was 0.059 ± 0.018 µg/mL; in assay [6] (setting [19]), 0.202 ± 0.037 µM; in assay [6] (setting [20]), 0.048 ± 0.008 µg/mL. For the same molecule, the EC50 in assay [7] (setting [21]) worked out at 0.126 ± 0.138 µM; in assay [7] (setting [22]), 0.03 ± 0.033 µg/mL; in [8] (setting [23]), 0.134 ± 0.11 µM; in assay [8] (setting [24]) it was 0.032 ± 0.026 µg/mL; in [9] (setting [25]), 0.055 ± 0.026 µg/mL; in assay [9] (setting [26]), 0.194 ± 0.057 µM. Also, the EC50 worked out at 0.198 ± 0.101 µM in [10] (setting [27]) and 0.047 ± 0.024 µg/mL in assay [10] (setting [28]). The “range of mean EC50 concentrations across the HAdV serotypes tested” value in [3] worked out at 2 fold. In addition, the “EC50 concentrations lower for CPE-C compared to cidofovir” value in [3] (majority of the HAdV types) is given as “approximately 100 fold”. Besides, the “EC50s across the panel of HAdV types” value in assay [3] (nine adenovirus types that commonly infect the eye) was under 0.06 µg/mL.
On to `Nc1ccn(C[C@@H](CO)OCP(=O)(O)O)c(=O)n1` [Cidofovir, cidofovir, reference compound], for which the EC50 in assay [1] (setting [11]) is 17.5 ± 1.85 µM; in [1] (setting [12]) it was 4.9 ± 0.517 µg/mL; in assay [2] (setting [13]), 18.9 ± 2.11 µM; in assay [2] (setting [14]), 5.27 ± 0.588 µg/mL; in assay [3] (read-out: EC50 concentrations for a majority of the HAdV serotypes, majority of the HAdV serotypes), about 5 µg/mL; in [4] (setting [15]), 14.8 ± 3.26 µM. Also, the EC50 in assay [4] (setting [16]) amounted to 4.12 ± 0.91 µg/mL; in [5] (setting [17]), 1560 ± 592 nM; in assay [5] (setting [18]), 0.427 ± 0.173 µg/mL; in assay [6] (setting [19]) it was 17.2 ± 2.43 µM; in [6] (setting [20]) it was 4.79 ± 0.678 µg/mL; in [7] (setting [21]) it was 17.6 ± 1.74 µM. Besides, the EC50 in assay [7] (setting [22]) is 4.92 ± 0.486 µg/mL; in [8] (setting [23]) it was 16.5 ± 3.31 µM; in [8] (setting [24]), 4.61 ± 0.925 µg/mL; in assay [9] (HAdV7a, converted from μg/mL) it was 19.2 ± 0.491 µM; in [9] (setting [25]), 5.37 ± 0.137 µg/mL; in [9] (setting [26]), 19.2 ± 0.491 µM. Also, the EC50 in [10] (setting [27]) was 18.3 ± 1.47 µM; in assay [10] (setting [28]), 5.11 ± 0.41 µg/mL. Moreover, the “range of mean EC50 concentrations across the HAdV serotypes tested” value in assay [3] is 12.6 fold.
